Patent publication US8003655B2, “Substituted sulphoximines as TIE2 inhibitors and salts thereof, pharmaceutical compositions comprising same, methods of preparing same and uses of same” (Bayer Schering Pharma AG, priority 2006, dated 2011)

Assays:
Type in all cases: biochemical
Tie2 = molecular target: T1, Tie2 (Homo sapiens, UniProt Q02763); assay: Tie2-Kinase HTRF-Assay without kinase preactivation (assay 2); settings: 10 μM ATP, pIC50 = −log IC50 in molar concentration, read-out: Tie 2 activity (assay 2)
T1 construct: A recombinant fusion protein of GST and the intracellular domains of Tie2; GST; made in house; host or cells: insect cells (Hi-5)
T1 sequence (Q02763 770-1124 limits assumed): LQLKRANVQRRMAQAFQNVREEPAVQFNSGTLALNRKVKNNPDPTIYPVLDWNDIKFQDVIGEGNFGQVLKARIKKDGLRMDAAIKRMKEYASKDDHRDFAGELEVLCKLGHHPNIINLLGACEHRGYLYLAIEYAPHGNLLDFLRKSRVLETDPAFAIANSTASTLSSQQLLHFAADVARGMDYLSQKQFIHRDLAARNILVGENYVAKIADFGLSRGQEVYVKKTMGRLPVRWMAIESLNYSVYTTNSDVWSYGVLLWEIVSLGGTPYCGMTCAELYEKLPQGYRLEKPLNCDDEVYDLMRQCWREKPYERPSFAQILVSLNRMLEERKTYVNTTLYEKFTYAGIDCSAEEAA
Source text: Tie2-inhibitory activity of compounds of the present invention was quantified employing two Tie2 HTRF assay as described in the following paragraphs.
A recombinant fusion protein of GST and the intracellular domains of Tie2, expressed in insect cells (Hi-5) and purified by Glutathion-Sepharose affinity chromatography was used as kinase. Alternatively, commercially available GST-Tie2-fusion protein (Upstate Biotechnology, Dundee, Scotland) can be used as substrate for the kinase reaction the biotinylated peptide biotin-Ahx-EPKDDAYPLYSDFG (C-terminus in amid form) was used which can be purchased e.g. from the company Biosynthan GmbH (Berlin-Buch, Germany). Detection of phosphorylated product is achieved specifically by a trimeric detection complex consisting of the phosphorylated substrate, streptavidin-XLent (SA-XLent) which binds to biotin, and Europium Cryptate-labeled anti-phosphotyrosine antibody PT66 which binds to phosphorylated tyrosine.
Tie2 (3.5 ng/measurement point) was incubated for 60 min at 22° C. in the presence of 10 μM adenosine-tri-phosphate (ATP) and 1 μM substrate peptide (biotin-Ahx-EPKDDAYPLYSDFG-NH2) with different concentrations of test compounds (0 μM and concentrations in the range 0.001-20 μM) in 5 μl assay buffer [50 mM Hepes/NaOH pH 7, 10 mM MgCl2, 0.5 mM MnCl2, 1.0 mM dithiothreitol, 0.01% NP40, protease inhibitor mixture (“Complete w/o EDTA” from Roche, 1 tablet per 2.5 ml), 1% (v/v) dimethylsulfoxide]. The reaction was stopped by the addition of 5 μl of an aqueous buffer (25 mM Hepes/NaOH pH 7.5, 0.28% (w/v) bovine serum albumin) containing EDTA (90 mM) and the HTRF (Homogeneous Time Resolved Fluorescence) detection reagents streptavidine-XLent (0.2 μM, from Cis Biointernational, Marcoule, France) and PT66-Eu-Chelate (0.3 ng/μl; a europium-chelate labelled anti-phospho-tyrosine antibody from Perkin Elmer).
(§1) The resulting mixture was incubated 1 h at 22° C. to allow the binding of the biotinylated phosphorylated peptide to the streptavidine-XLent and the PT66-Eu-Chelate. Subsequently the amount of phosphorylated substrate peptide was evaluated by measurement of the resonance energy transfer from the PT66-Eu-Chelate to the streptavidine-XLent. Therefore, the fluorescence emissions at 620 nm and 665 nm after excitation at 350 nm was measured in a HTRF reader, e.g. a Rubystar (BMG Labtechnologies, Offenburg, Germany) or a Viewlux (Perkin-Elmer). The ratio of the emissions at 665 nm and at […] was taken as the measure for the amount of phosphorylated substrate peptide. The data were normalised (enzyme reaction without inhibitor=0% inhibition, all other assay components but no enzyme=100% inhibition) and IC50 values were calculated by a 4 parameter fit using an inhouse software.

CDK2/CycE = molecular target: T2, CDK2/CycE (Homo sapiens, UniProt P24941); assay: CDK2 HTRF Assay (assay 4); settings: 10 μM ATP, pIC50 = −log IC50 in molar concentration
T2 construct: GST; purchased ProQinase GmbH (Freiburg, Germany); host or cells: insect cells (Sf9)
Source text: CDK2/CycE-inhibitory activity of compounds of the present invention was quantified employing the CDK2/CycE HTRF assay as described in the following paragraphs.
Recombinant fusion proteins of GST and human CDK2 and of GST and human CycE, expressed in insect cells (Sf9) and purified by Glutathion-Sepharose affinity chromatography, were purchase from ProQinase GmbH (Freiburg, Germany). As substrate for the kinase reaction biotinylated peptide biotin-Ttds-YISPLKSPYKISEG (C-terminus in amid form) was used which can be purchased e.g. form the company JERINI peptide technologies (Berlin, Germany).
CDK2/CycE was incubated for 60 min at 22° C. in the presence of different concentrations of test compounds in 5 μl assay buffer [50 mM Tris/HCl pH 8.0, 10 mM MgCl2, 1.0 mM dithiothreitol, 0.1 mM sodium ortho-vanadate, 10 μM adenosine-tri-phosphate (ATP), 0.75 μM substrate, 0.01% (v/v) Nonidet-P40 (Sigma), 1% (v/v) dimethylsulfoxide]. The concentration of CDK2/CycE was adjusted depending of the activity of the enzyme lot and was chosen appropriate to have the assay in the linear range, typical concentrations were in the range of 1 ng/ml. The reaction was stopped by the addition of 5 μl of a solution of HTRF detection reagents (0.2 μM streptavidine-XLent and 3.4 nM Phospho-(Ser) CDKs Substrate Antibody [product #2324B, Cell Signalling Technology, Danvers, Mass., USA} and 4 nM Prot-A-EuK [Protein A labeled with Europium Cryptate from Cis biointernational, France, product no. 61PRAKLB]) in an aqueous EDTA-solution (100 mM EDTA, 800 mM KF, 0.2% (w/v) bovine serum albumin in 100 mM HEPES/NaOH pH 7.0).

preactivated Tie2 = molecular target: T3, preactivated Tie2 (Homo sapiens, UniProt Q02763); assay: Tie2-Kinase HTRF-Assay with kinase preactivation (assay 3); settings: 10 μM ATP, pIC50 = −log IC50 in molar concentration, read-out: Tie 2 activity (assay 3)
T3 construct: A recombinant fusion protein of GST and the intracellular domains of Tie2; GST; made in house; host or cells: insect cells (Hi-5)
T3 sequence (Q02763 770-1124 limits assumed): as above
Experimental: Assay 3: Tie2-Kinase HTRF-Assay with Kinase Preactivation
A recombinant fusion protein of GST and the intracellular domains of Tie2, expressed in insect cells (Hi-5) and purified by Glutathion-Sepharose affinity chromatography was used as kinase. As substrate for the kinase reaction the biotinylated peptide biotin-Ahx-EPKDDAYPLYSDFG (C-terminus in amid form) was used which can be purchased e.g. from the company Biosynthan GmbH (Berlin-Buch, Germany).
For activation, Tie2 was incubated at a conc. 12.5 ng/μl of for 20 min at 22° C. in the presence of 250 μM adenosine-tri-phosphate (ATP) in assay buffer [50 mM Hepes/NaOH pH 7, 10 mM MgCl2, 0.5 mM MnCl2, 1.0 mM dithiothreitol, 0.01% NP40, protease inhibitor mixture (“Complete w/o EDTA” from Roche, 1 tablet per 2.5 ml)].
For the subsequent kinase reaction, the preactivated Tie2 (0.5 ng/measurement point) was incubated for 20 min at 22° C. in the presence of 10 μM adenosine-tri-phosphate (ATP) and 1 μM substrate peptide (biotin-Ahx-EPKDDAYPLYSDFG-NH2) with different concentrations of test compounds (0 μM and concentrations in the range 0.001-20 μM) in 5 μl assay buffer [50 mM Hepes/NaOH pH 7, 10 mM MgCl2, 0.5 mM MnCl2, 0.1 mM sodium ortho-vanadate, 1.0 mM dithiothreitol, 0.01% NP40, protease inhibitor mixture (“Complete w/o EDTA” from Roche, 1 tablet per 2.5 ml), 1% (v/v) dimethylsulfoxide]. The reaction was stopped by the addition of 5 μl of an aqueous buffer (25 mM Hepes/NaOH pH 7.5, 0.28% (w/v) bovine serum albumin) containing EDTA (90 mM) and the HTRF (Homogeneous Time Resolved Fluorescence) detection reagents streptavidine-XLent (0.2 μM, from Cis Biointernational, Marcoule, France) and PT66-Eu-Chelate (0.3 ng/μl; a europium-chelate labelled anti-phospho-tyrosine antibody from Perkin Elmer).
as §1

Row | SMILES | IC50 (Tie2) [nM] | IC50 (CDK2/CycE) [nM] | IC50 (preactivated Tie2) [nM]
1 | CSc1nc(Nc2cccc(S(C)(=N)=O)c2)ncc1-c1ccc(NC(=O)Nc2cc(C(F)(F)F)ccc2F)c(F)c1 (racemic) [Example 44, 1-{2-Fluoro-4-[2-{[3-(RS)-(S-methylsulfonimidoyl)phenyl]amino}-4-(methylthio)-pyrimidin-5-yl]phenyl}-3-[2-fluoro-5-(trifluoromethyl)-phenyl]urea] | < 100 | > 10000 | 
2 | CCOC(=O)N=S(C)(=O)c1ccc(Nc2ncc(-c3ccc(NC(=O)Nc4cccc(C(F)(F)F)c4)cc3)c(N[C@H](C)CO)n2)cc1 (mixture of isomers) [Example 7, 1-{4-[2-({4-[(RS)-N-(Ethoxycarbonyl)-S-methylsulfonimidoyl]phenyl}amino)-4-{[(R)-2-hydroxy-1-methylethyl]amino}-pyrimidin-5-yl]-phenyl}-3-[3-(trifluoromethyl)-phenyl]urea] | < 100 | > 10000 | < 100
3 | CS(=N)(=O)c1cccc(Nc2ncc(-c3ccc(NC(=O)Nc4cc(C(F)(F)F)ccc4F)c(F)c3)c(NCCc3ccccc3)n2)c1 (racemic) [Example 48, 1-[2-Fluoro-4-(2-{[3-(RS)-(S-methylsulfonimidoyl)phenyl]amino}-4-[(2-phenylethyl)amino]-pyrimidin-5-yl)phenyl]-3-[2-fluoro-5-(trifluoromethyl)-phenyl]urea] | 100 to 1000 | > 10000 | 
4 | CCOC(=O)N=S(C)(=O)c1cccc(Nc2ncc(-c3ccc(NC(=O)Nc4cccc(C(F)(F)F)c4)cc3)c(N[C@H](C)CO)n2)c1 (mixture of isomers) [Example 10, 1-{4-[2-({3-[(RS)-N-(Ethoxycarbonyl)-S-methylsulfonimidoyl]phenyl}amino)-4-{[(R)-2-hydroxy-1-methylethyl]amino}-pyrimidin-5-yl]-phenyl}-3-[3-(trifluoromethyl)-phenyl]urea] | 100 to 1000 | > 10000 | 
5 | CC(C)NC(=O)N=S(C)(=O)c1cccc(Nc2ncc(-c3ccc(NC(=O)Nc4cccc(C(F)(F)F)c4)cc3)c(N[C@H](C)CO)n2)c1 (mixture of isomers) [Example 14, 1-{4-[4-{[(R)-2-hydroxy-1-methylethyl]amino}-2-({3-[(RS)-N-(isopropylcarbamoyl) -S-methylsulfonimidoyl]phenyl}amino)-pyrimidin-5-yl]phenyl}-3-[3-(trifluoromethyl)-phenyl]urea] | 100 to 1000 | > 10000 | 
6 | CCOC(=O)N=S(C)(=O)c1ccc(Nc2ncc(-c3ccc(NC(=O)Nc4ccccc4)cc3)c(N[C@H](C)CO)n2)cc1 (mixture of isomers) [Example 6, 1-{4-[2-({4-[(RS)-N-(Ethoxycarbonyl)-S-methylsulfonimidoyl]phenyl}amino)-4-{[(R)-2-hydroxy-1-methylethyl]amino}-pyrimidin-5-yl]-phenyl}-3-[phenyl]urea] | 100 to 1000 | > 10000 | 
7 | CCOC(=O)N=S(C)(=O)c1cccc(Nc2ncc(-c3ccc(NC(=O)Nc4cc(C(F)(F)F)ccc4F)c(F)c3)c(NCCN3CCOCC3)n2)c1 (racemic) [Example 29, 1-{4-[2-({3-[(RS)-N-(Ethoxycarbonyl)-S-methylsulfonimidoyl]phenyl}amino)-4-{[2-(morpholin-4-yl)ethyl]amino}pyri-midin-5-yl]-2-fluorophenyl}-3-[2-fluoro-5-(trifluoromethyl)-phenyl]urea] | < 100 | > 10000 | 
8 | C[C@H](CO)Nc1nc(Nc2ccc(S(C)(=N)=O)cc2)ncc1-c1ccc(NS(=O)(=O)c2cccc(Cl)c2Cl)cc1 (mixture of isomers) [Example 24] | 100 to 1000 | > 10000 | 
9 | CCOC(=O)N=S(C)(=O)c1ccc(Nc2ncc(-c3ccc(NC(=O)C4(c5ccccc5)CC4)cc3)c(N[C@H](C)CO)n2)cc1 (mixture of isomers) [Example 1, N-{4-[2-({4-[(RS)-N-(Ethoxycarbonyl)-S-methylsulfonimidoyl]phenyl}amino)-4-{[(R)-2-hydroxy-1-methylethyl]amino}-pyrimidin-5-yl]phenyl}-1-phenylcyclopropanecarboxamide] | 100 to 1000 | > 10000 | 
10 | C[C@H](CO)Nc1nc(Nc2cccc(S(C)(=N)=O)c2)ncc1-c1ccc(NC(=O)Nc2cccc(C(F)(F)F)c2)cc1 (mixture of isomers) [Example 39, 1-[4-(4-{[(R)-2-Hydroxy-1-methylethyl]amino}-2-{[3-(RS)-(S-methylsulfonimidoyl)phenyl]amino}-pyrimidin-5-yl)phenyl]-3-[3-(trifluoromethyl)-phenyl]urea] | < 100 | > 10000 | 
11 | CCOC(=O)N=S(C)(=O)c1cccc(Nc2ncc(-c3ccc(NC(=O)Nc4cc(C(F)(F)F)ccc4F)c(F)c3)c(SC)n2)c1 (racemic) [Example 17, 1-{4-[2-({3-[(RS)-N-(Ethoxycarbonyl)-S-methylsulfonimidoyl]phenyl}amino)-4-(methylsulfanyl)pyrimidin-5-yl]-2-fluorophenyl}-3-[2-fluoro-5-(trifluoromethyl)phenyl]urea] | < 100 | > 10000 | 
